Like-named read-outs stand apart in the source and are kept apart here.
Tests used:
[1] = Paclitaxel toxicity, first study: body weight and mortality; type: in vivo, female non-tumor-bearing athymic (NCr-nu) mice; conditions: BT 0 mg
Description: The effect of combining BT with paclitaxel (PAC, or TAXOL™) on the toxicity of paclitaxel was investigated. In a first study, groups of 10 female non-tumor-bearing athymic (NCr-nu) mice were administered paclitaxel i.v. at doses of 50 and 30 mg/kg/dose on a qld×5 schedule, which means once each day for five days. Paclitaxel (PAC) was in 12.5% cremophor/12.5% ethanol/75% saline alone, or in combination with 30 mg/kg BT (first dissolved in saline) and delivered as a single i.v. injection (0.1 cc/10 gm body weight). BT was also administered on a qld×5 schedule. Body weights were measured twice a week and survival data was recorded daily. The study was terminated on day 21.
Weight loss values reflect the lowest recorded weight, which was on day 7 for all groups. Importantly, there were fewer deaths when BT was coadministered with either 30 mg or 50 mg paclitaxel.
For the group receiving 50 mg paclitaxel, the survival difference was statistically significant (log rank=6.41, p=0.0113). There were 9 deaths on day 21 with 50 mg PAC alone, but only 2 deaths when 30 mg BT was administered with 50 mg PAC. When BT was coadministered with 30 mg PAC there was only 1 death on day 21, which was due not to toxicity, but to a technician error. By contrast, there were 2 toxic deaths with 30 mg PAC alone.

Question: Which “Percent Body Weight Loss From Day 0” value (DEX.10 mg IP, day 1) does the source give for `C[C@@H]1C[C@H]2[C@@H]3CCC4=CC(=O)C=C[C@]4(C)[C@@]3(F)[C@@H](O)C[C@]2(C)[C@@]1(O)C(=O)CO` [DEX., dexamethasone] here?
Answer: 3.0%

Question: And the “Percent Body Weight Loss From Day 0” value (DEX.10 mg IP, day 5)?
Answer: 4.6%

Question: And the “Percent Body Weight Loss From Day 0” value (DEX.10 mg IP, day 6)?
Answer: 2.8%

Question: And the “Percent Body Weight Loss From Day 0” value (DEX.10 mg IP, day 7)?
Answer: 3.4%

Question: What about the “Percent Body Weight Loss From Day 0” value (DEX.10 mg IP, day 8) of the same compound?
Answer: 2.4%

Question: What about the “Percent Body Weight Loss From Day 0” value (DEX.10 mg IP, day 9) of the same compound?
Answer: 3.6%

Question: And the “Percent Body Weight Loss From Day 0” value (DEX.10 mg IP, day 10)?
Answer: 2.8%

Question: What about the “Percent Body Weight Loss From Day 0” value (DEX.10 mg IP, day 11) of the same compound?
Answer: 1.3%

Question: What about the “Percent Body Weight Loss From Day 0” value (DEX.10 mg IP, day 12) of the same compound?
Answer: 3.7%

Question: What about the “Percent Body Weight Loss From Day 0” value (DEX.10 mg IP, day 13) of the same compound?
Answer: 2.1%

Question: What about the “Percent Body Weight Loss From Day 0” value (DEX.10 mg IP, day 21) of the same compound?
Answer: 0.1%

Question: Which results are given for `CC(=O)O[C@H]1C(=O)[C@@]2(C)[C@H]([C@H](OC(=O)c3ccccc3)[C@]3(O)C[C@H](OC(=O)[C@H](O)[C@@H](NC(=O)c4ccccc4)c4ccccc4)C(C)=C1C3(C)C)[C@]1(OC(C)=O)CO[C@@H]1C[C@@H]2O` [PAC, paclitaxel]?
Answer: deaths ([1]; PAC 30 mg, Day 1): 0; mean weight ([1]; PAC 30 mg, Day 1): 19 gm; % weight change ([1]; PAC 30 mg, Day 7): −26.3%; deaths ([1]; PAC 30 mg, Day 7): 1; mean weight ([1]; PAC 30 mg, Day 7): 14 gm; % weight change ([1]; PAC 30 mg, Day 10): −21.1%; deaths ([1]; PAC 30 mg, Day 10): 2; mean weight ([1]; PAC 30 mg, Day 10): 15 gm; % weight change ([1]; PAC 30 mg, Day 14): −5.3%; deaths ([1]; PAC 30 mg, Day 14): 2; mean weight ([1]; PAC 30 mg, Day 14): 18 gm; % weight change ([1]; PAC 30 mg, Day 21): +21.1%; deaths ([1]; PAC 30 mg, Day 21): 2; mean weight ([1]; PAC 30 mg, Day 21): 23 gm; deaths (cummul.) ([1]; PAC 50 mg, Day 1): 0; mean weight ([1]; PAC 50 mg, Day 1): 19 gm; % weight change ([1]; PAC 50 mg, Day 7): −31.6%; deaths (cummul.) ([1]; PAC 50 mg, Day 7): 1; mean weight ([1]; PAC 50 mg, Day 7): 13 gm; % weight change ([1]; PAC 50 mg, Day 10): −36.8%; deaths (cummul.) ([1]; PAC 50 mg, Day 10): 9; mean weight ([1]; PAC 50 mg, Day 10): 12 gm; % weight change ([1]; PAC 50 mg, Day 14): −26.3%; deaths (cummul.) ([1]; PAC 50 mg, Day 14): 9; mean weight ([1]; PAC 50 mg, Day 14): 14 gm; % weight change ([1]; PAC 50 mg, Day 21): +10.5%; deaths (cummul.) ([1]; PAC 50 mg, Day 21): 9; mean weight ([1]; PAC 50 mg, Day 21): 21 gm; Percent Body Weight Loss From Day 0 (Taxol 40 mg/kg IV, day 1): 3.8%; Percent Body Weight Loss From Day 0 (Taxol 40 mg/kg IV, day 5): 10.7%; Percent Body Weight Loss From Day 0 (Taxol 40 mg/kg IV, day 6): 11.0%; Percent Body Weight Loss From Day 0 (Taxol 40 mg/kg IV, day 7): 15.2%; Percent Body Weight Loss From Day 0 (Taxol 40 mg/kg IV, day 8): 17.2%; Percent Body Weight Loss From Day 0 (Taxol 40 mg/kg IV, day 9): 17.5%; Percent Body Weight Loss From Day 0 (Taxol 40 mg/kg IV, day 10): 14.6%; Percent Body Weight Loss From Day 0 (Taxol 40 mg/kg IV, day 11): 11.8%; Percent Body Weight Loss From Day 0 (Taxol 40 mg/kg IV, day 12): 10.4%; Percent Body Weight Loss From Day 0 (Taxol 40 mg/kg IV, day 13): 7.8%; Percent Body Weight Loss From Day 0 (Taxol 40 mg/kg IV, day 21): −1.2%

Source: patent US6762174B1 (priority 1998, dated 2004)
